Source: patent US11866416B2, “Streptococcus mutans glucosyl transferase inhibitors for dental caries therapy” (UAB Research Foundation, priority 2018, dated 2024)
Where two headings read alike, the source gives them in different places. Marks after values point to notes of the source that are not given here.

Key:
S. mutans biofilm = S. mutans biofilm formation and inhibition assay (96-well plates, crystal violet); assay type: cell-based, Streptococcus mutans; settings: for IC50: Streptococcus mutans
S. mutans Gtfs = experiment: Gtf zymographic assay with SDS-PAGE; assay type: biochemical, Streptococcus mutans; settings: for % Inhibition of GTFs at 10 μM: S. mutans GTF zymogram assay, NI = no inhibition up to 10 μM; for Gtf enzyme inhibitory activity, glucan bands in zymogram / production of Gtfs, protein level on SDS-PAGE: 50 μM added to cultures
Procedure: A well-established zymographic assay was used to determine enzymatic activity of Gtfs (Mattos-Graner et al. (2004) J. Clin. Microbiol. 42, […]). In brief, overnight S. mutans UA159 cultures were diluted 1:100 in fresh 5 mL THB with 50 μL of selective compounds at a series of concentrations. Treated bacteria were grown to OD470 of 1.0, and spun down by centrifugation at 4° C., and culture supernatants were collected and filtered through a 0.22-μm-pore-size filter membrane to remove residual bacterial cells and dialyzed at 4° C. against 0.02 M sodium phosphate buffer (pH 6.8), with 10 μM phenylmethylsulfonyl fluoride (PMSF), followed by a second dialysis against 0.2 mM sodium phosphate containing 10 μM PMSF. After dialysis, 4 mL of samples were concentrated to 40 μL by 100K Amicon Ultra-4 centrifugal filter (Merck Millipore Ltd.). For electrophoresis and zymographic analysis, 10 μL of each concentrated culture supernatant was applied to 8% SDS-PAGE in duplicate. One gel was used for protein staining with Coomassie blue dye, while the other one was subjected to zymographic assay as described (Mattos-Graner et al. (2004) J. Clin. Microbiol. 42, […]). The resultant white opaque glucan bands were visualized against a black background.
Inhibition of the activity of Gtfs determined by zymographic assays. Well established zymographic assay was used to determine enzymatic activity of Gtfs. In brief, overnight S. mutans UA159 cultures were diluted 1:100 in fresh 5 mL THB. Bacteria were grown to OD470 of 1.0, and spun down by centrifugation at 4° C. and culture supernatants were collected and filtered through a 0.22-μm-pore-size filter membrane to remove residual bacterial cells and dialyzed at 4° C. against 0.02 M sodium phosphate buffer (pH 6.8), with 10 μM phenylmethylsulfonyl fluoride (PMSF), followed by a second dialysis against 0.2 mM sodium phosphate containing 10 μM PMSF. After dialysis, 4 mL of samples were concentrated to 40 μL by 100K Amicon Ultra-4 centrifugal filter (Merk Millipore Ltd.). For electrophoresis and zymographic analysis, 10 μL of each concentrated culture supernatant was applied to 8% SDS-PAGE in duplicate. One gel was used for protein staining with Coomassie blue dye, while the other one was subjected to zymographic assay. For zymogram analysis, following electrophoretic separation, gels were washed twice for 15 min each with renaturing buffer containing 2.5% Triton X-100. Gels were then incubated for 18 h at 37° C. with 0.2 M sodium phosphate buffer (pH 6.5) containing 0.2% dextran T70, 5% sucrose, and varying concentrations of the small molecule inhibitors. The reactions were stopped by washing gels with distilled water at 4° C. for 10 min, and digital images of the resultant white opaque glucan bands were visualized against a black background and captured using a digital camera.
Inhibition of the activity of Gtfs determined by zymographic assays. A well-established zymographic assay was used to determine enzymatic activity of Gtfs (Mattos-Graner, R. O., Napimoga, M. H., Fukushima, K., Duncan, M. J., Smith, D. J., J Clin Microbiol, 2004, 42, 4586). In brief, overnight S. mutans UA159 cultures were diluted 1:100 in fresh 5 mL THB with 50 μL of selective compounds at a series of concentrations. Treated bacteria were grown to OD470 of 1.0, and spun down by centrifugation at 4° C., and culture supernatants were collected and filtered through a 0.22-μm-pore-size filter membrane to remove residual bacterial cells and dialyzed at 4° C. against 0.02 M sodium phosphate buffer (pH 6.8), with 10 μM phenylmethylsulfonyl fluoride (PMSF), followed by a second dialysis against 0.2 mM sodium phosphate containing 10 μM PMSF. After dialysis, 4 mL of samples were concentrated to 40 μL by 100K Amicon Ultra-4 centrifugal filter (Merk Millipore Ltd.). For electrophoresis and zymographic analysis, 10 μL of each concentrated culture supernatant was applied to 8% SDS-PAGE in duplicate. […]

GtfB catalytic domain = GtfB catalytic domain (Streptococcus mutans serotype c (strain ATCC 700610 / UA159), UniProt P08987); experiment: OctetRed96 binding kinetics, GtfB; settings: 1:1 binding model
GtfB catalytic domain, sequence (P08987 268-1074 limits assumed): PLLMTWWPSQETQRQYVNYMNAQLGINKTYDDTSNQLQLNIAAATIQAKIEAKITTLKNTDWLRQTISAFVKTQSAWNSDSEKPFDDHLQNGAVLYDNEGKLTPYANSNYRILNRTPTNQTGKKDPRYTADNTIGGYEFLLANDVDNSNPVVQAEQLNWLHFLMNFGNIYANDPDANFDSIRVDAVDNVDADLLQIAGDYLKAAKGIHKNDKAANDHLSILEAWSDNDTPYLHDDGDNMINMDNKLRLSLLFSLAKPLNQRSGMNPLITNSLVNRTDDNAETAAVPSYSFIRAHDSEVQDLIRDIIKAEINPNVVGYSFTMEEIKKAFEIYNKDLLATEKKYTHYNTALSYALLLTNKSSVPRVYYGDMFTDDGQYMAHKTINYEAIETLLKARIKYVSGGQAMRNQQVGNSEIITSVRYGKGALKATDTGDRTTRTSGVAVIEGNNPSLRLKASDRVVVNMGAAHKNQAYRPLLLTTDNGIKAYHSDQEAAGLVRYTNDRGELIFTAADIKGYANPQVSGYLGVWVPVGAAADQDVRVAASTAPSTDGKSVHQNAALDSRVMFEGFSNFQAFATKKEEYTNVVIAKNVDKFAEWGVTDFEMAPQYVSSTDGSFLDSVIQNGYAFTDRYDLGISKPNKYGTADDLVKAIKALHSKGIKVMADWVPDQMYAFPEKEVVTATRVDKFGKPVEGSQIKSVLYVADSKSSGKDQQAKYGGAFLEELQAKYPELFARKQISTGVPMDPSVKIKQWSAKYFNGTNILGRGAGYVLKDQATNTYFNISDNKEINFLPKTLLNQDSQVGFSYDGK
Source text: To determine if the inhibition is attributed by the binding of the lead compound to the enzymes, the OctetRed96 system was used to characterize protein-small molecule binding kinetics. The his-tagged catalytic domains of GtfB and GtC were immobilized separately onto an anti-penta-HIS (HIS1K) biosensor which consists of high affinity, high specificity penta-his antibody pre-immobilized on a fiber optic biosensor. This sensor was then exposed to varying concentrations of #G43.
Expression and purification of GtfB and GtfC catalytic domains. The DNA fragment coding for either GtfB catalytic (residues 268 aa-1074 aa) or GtfC-catalytic (residues 295 aa-1103 aa) was PCR amplified with primer sets of GtfB-BamH1-F and GtfB-Xho1-R, GtfC-BamH1-F and GtfC-Xhol1-R respectively using S. mutans genomic DNA as a template. Each amplified fragment was cloned into pET-sumo vector respectively and transformed in Escherichia coli BL21(DE3). The recombinant strain grown to OD600=0.8 in LB medium was induced with 0.1 mM IPTG at 18° C. overnight. Cell lysates prepared form the overnight grown E. coli cells were subjected to protein purification using HiTrap™ Column (Ni^2+ affinity) followed by gel filtration experiments as described (Zhu, F. et al. Structural and functional analysis of a new subfamily of glycosyltransferases required for glycosylation of serine-rich streptococcal adhesins. The Journal of biological chemistry 286, 27048-27057, doi:10.1074/jbc.M110.208629 (2011); Zhang, H. et al. The highly conserved domain of unknown function 1792 has a distinct glycosyltransferase fold. Nature communications 5, 4339, doi:10.1038/ncomms5339 (2014)).
Octet Red analysis. Octet full kinetic binding analysis was performed for binding of #G43 to GtfB and GtfC. The rate constant, KD, was determined using the Octet® Red96 system (ForteBio, Menlo Park, Calif.). Phosphate buffer with 3.5% (w/v) DMSO was used. The proteins were captured on dip-and-read Anti-Penta-HIS (HIS1K) Biosensor. These consist of high affinity, high specificity Penta-His antibody from Qiagen pre-immobilized on a fiber optic biosensor. The binding of #G43 at 3-fold serial dilutions in phosphate buffer from 200, 66.6, 22.2, 7.4, 2.5 to 0 μM was assessed. The ForteBio Octet analysis software (ForteBio, Menlo Park, Calif.) was used to generate the sensorgram and the accuracy of the analysis.
OctetRed analysis. […] GtfC and GtfB were purified. The Octet® Red96 system (ForteBio, Menlo Park, Calif.) was used to determine the rate constant, KD. […] Sensorgrams and the accuracy of the analysis was calculated using the ForteBio OctetRed analysis software (ForteBio, Menlo Park, Calif.).

S. mutans = experiment: microbe, parasite or virus in culture; assay type: cell-based, Streptococcus mutans; settings: for MIC50 / IC50: Streptococcus mutans; for MIC50: read-out: Growth Inhibition MIC50; for IC50: Table 7, synthesized analogs of compound 9, read-out: Growth IC50; for SI (selectivity index): Table 7, growth IC50 value divided by biofilm IC50 value
Procedure, shortened: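 Mid-exponential cultures (OD470 0.6) in THB were exposed to compound concentrations for 16 h, with growth read at OD470 and normalised to 1% DMSO control (100%). CFU/mL were also counted after 24 h at 37 °C and compared with the DMSO control.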

S. mutans colonization = experiment: Sucrose-dependent Drosophila colonization model; assay type: in vivo; settings: chalcones; 100 μM or 50 μM
Procedure: Briefly, Gfp tagged S. mutans bacteria were infected into flies along with the treatment appropriate compound at 100 μM in a feeding-assay.
Mid-log phase THB cultures of Gfp-tagged (green fluorescent protein) S. mutans UA159 were spun down and resuspended in a solution containing 5% sucrose and 50 μM of the compound. 100 μL of resuspended cells were spotted onto a sterile filter that was placed on the surface of 5 mL of solidified 5% sucrose agar in a plastic vial. The vials were allowed to dry at room temperature for 30 minutes prior to addition of flies. Male Canton S flies (1-3 days old) were treated with antibiotics for 2 days and starved for 3 hours prior to the addition to vials supplied with S. mutans (10 flies per vial). The colonization of flies by Gfp-tagged strains were analyzed by Nikon elipse 90i microscope, equipped with an Epi-fluorescence and NIS elements AR imaging system.
The intensity of the fluorescence was measured in the guts of the flies fed with the Gfp tagged bacteria after 7 days of infection.
Cultures of Gfp-tagged (green fluorescent protein) S. mutans UA159 grown to middle log phase were spun down and re-suspended in a solution containing 5% sucrose and 50 μM of each compound. 100 μL of re-suspended cells were aliquoted onto a sterile filter that was placed on the surface of 5 mL of solidified 5% sucrose agar in a plastic vial. Upon the drying of the vials at room temperature for 30 min, the flies were introduced to the vessels. Male Canton S flies (1-3 days old) were treated with antibiotics for 2 days and starved for 3 h before the addition to vials supplied with S. mutans (10-14 flies per vial). Nikon elipse 90i microscope, equipped with an Epi-fluorescence and NIS elements AR imaging system was used to analyze the colonization of flies by Gfp-tagged strains.

[1] = Table 1, >500 = no inhibition up to 500 μM, read-out: Biofilm Inhibition IC50
[2] = Table 2, read-out: Biofilm Inhibition IC50
[3] = Table 5, >500 = no inhibition up to 500 μM, read-out: Biofilm Inhibition IC50
[4] = Table 2, >300 = no inhibition up to 300 μM
[5] = Table 7, synthesized analogs of compound 9, read-out: Biofilm IC50
[6] = read-out: S. mutans biofilm IC50

SMILES | IC50 (S. mutans biofilm; [1]) | IC50 (S. mutans biofilm; [2]) | IC50 (S. mutans biofilm; [3]) | MIC50 (S. mutans; [4]) | % Inhibition of GTFs at 10 μM (S. mutans Gtfs) | IC50 (S. mutans biofilm; [5]) | IC50 (S. mutans) | SI (selectivity index) (S. mutans) | Gtf enzyme inhibitory activity, glucan bands in zymogram (S. mutans Gtfs) | melting point | production of Gtfs, protein level on SDS-PAGE (S. mutans Gtfs) | further results
O=C(Nc1ccccc1)c1cc2cc([N+](=O)[O-])ccc2s1 [#G43-D] |  |  |  |  |  |  |  |  |  |  |  | inhibition of S. mutans biofilms, biofilm assay and fluorescence microscopy (S. mutans biofilm; concentrations up to 200 μM): did not inhibit; glucan bands in zymographic assay (S. mutans Gtfs; 50 μM, Gtfs from S. mutans UA159 supernatants): significantly reduced the ability to inhibit the glucan production; Kd (GtfB catalytic domain): 68 µM
NC(=O)c1ccccc1NC(=O)c1cc2cc([N+](=O)[O-])ccc2s1 [Compound 3A] | 16.7 µM | 16.7 µM | 16.7 µM | > 300 µM | 30.3% |  |  |  |  |  |  | 
NC(=O)c1ccccc1NC(=O)c1cnc2ccccc2c1 [Compound 3I] | 15.3 µM | 15.3 µM | 15.3 µM | > 300 µM | 36.6% |  |  |  |  |  |  | 
NC(=O)c1ccccc1NC(=O)c1cc2cc(N)ccc2s1 [Compound 3M] | 10.2 µM |  | 10.2 µM |  | 42.2% |  |  |  |  |  |  | Growth Inhibition MIC50 (S. mutans; [4]): >300^b μM
O=C(Nc1ccccc1C(=O)O)c1cc2cc([N+](=O)[O-])ccc2s1 [Compound 3N] | 89.3 µM | 89.3 µM | 89.3 µM | > 300 µM | 30.1% |  |  |  |  |  |  | 
COC(=O)c1ccc(NC(=O)c2cc3cc([N+](=O)[O-])ccc3s2)cc1 [Compound 3O] | 9.6 µM | 9.6 µM | 9.6 µM | > 300 µM | 54.8% |  |  |  |  |  |  | 
O=C(/C=C/c1ccc(O)cc1O)c1cccc(O)c1 [Compound 9a, (E)-3-(2,4-Dihydroxyphenyl)-1-(3-hydroxyphenyl)-2-propen-1-one] |  |  |  |  |  | 68 ± 3 µM | 639 ± 25 µM | 9.39 | did not exhibit a drastic effect | 73 to 75 °C |  | IC50 (S. mutans biofilm; [6]): 68 µM; selectivity (index / fold) for biofilm over growth (S. mutans): about 10; fluorescence of Gfp tagged S. mutans in fly guts after 7 days (S. mutans colonization): marked reduction in fluorescence
O=C(/C=C\c1ccc(O)cc1O)c1cccc(O)c1 [Compound 9b, (Z)-3-(2,4-Dihydroxyphenyl)-1-(3-hydroxyphenyl)-2-propen-1-one] |  |  |  |  |  | 44 ± 5 µM | 468 ± 16 µM | 10.6 | exhibit the best inhibitory effects | 164 to 167 °C | showed an inhibitory effect on the production of Gtfs | IC50 (S. mutans biofilm; [6]): 44 µM; selectivity (index / fold) for biofilm over growth (S. mutans): about 10; fluorescence of Gfp tagged S. mutans in fly guts after 7 days (S. mutans colonization): marked reduction in fluorescence
O=C(/C=C/c1ccc(O)cc1O)c1ccc(O)cc1 [Compound 18b, (E)-3-(2,4-Dihydroxyphenyl)-1-(4-hydroxyphenyl)-2-propen-1-one] |  |  |  |  |  | 162 ± 21 µM | 1060 ± 118 µM | 6.6 | did not exhibit a drastic effect | 185 to 188 °C | showed an inhibitory effect on the production of Gtfs | 
O=C(/C=C/c1cc(O)c(O)cc1O)c1ccccc1O [Compound 18c, (E/Z)-1-(2-hydroxyphenyl)-3-(2,4,5-trihydroxyphenyl)prop-2-en-1-one] |  |  |  |  |  | 224 ± 23 µM | 323 ± 36 µM | 1.5 |  |  | largest inhibition | selectivity (index / fold) for biofilm over growth (S. mutans): 1.5
O=C(/C=C/c1cc(O)c(O)cc1O)c1ccc(O)cc1 [Compound 18d, (E)-1-(4-hydroxyphenyl)-3-(2,4,5-trihydroxyphenyl)prop-2-en-1-one] |  |  |  |  |  | 76 µM | 376 ± 6 µM | 4.9 | some weak inhibition of the GtfC band |  |  | 
O=C(/C=C\c1ccc(O)cc1O)c1ccc(O)cc1 [Compound 21b, (Z)-3-(2,4-Dihydroxyphenyl)-1-(4-hydroxyphenyl)-2-propen-1-one] |  |  |  |  |  | 77 ± 8 µM | 782 ± 96 µM | 10.1 | exhibit the best inhibitory effects | 185 to 187 °C | showed an inhibitory effect on the production of Gtfs | 
C(=C\c1ccccc1)/c1ccccc1 [E-stilbene, reference compound] |  |  |  |  |  |  |  |  |  |  |  | glucan production in zymogram assay (S. mutans Gtfs; stilbenes, versus DMSO control): no glucan inhibition
